This is an account of results in patent publication US20250353864A1, “INDAZOLE CONTAINING MACROCYCLES AND THEIR USE” (BLOSSOMHILL THERAPEUTICS, INC., priority 2022, published 2025).

Structures are written as SMILES.

What all share (format): biochemical
The target of one assay is EGFR WT (Homo sapiens (Human), UniProt P00533). In words: HotSpot radiometric kinase assay (Reaction Biology), EGFR WT. Conditions: 10 μM ATP. A digest of the protocol:
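IC50 values derive from curve fits of 33P incorporation measured by P81 filter binding. ATP was 10 μM final; incubation lasted 120 min at room temperature after ~20 min compound preincubation.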

A further assay concerns the target EGFR (D770_N771insNPG) (Homo sapiens (Human), UniProt P00533, INS770NPG). The assay is described as follows: HotSpot radiometric kinase assay, EGFR (D770_N771insNPG). The note with it: 10 μM ATP, read-out: EGFR (Δ770_N771insNPG) IC50. A digest of the protocol:
(§1)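 IC50 values come from curve fits of ^33P incorporation captured on P81 filters after acid washing. Kinase reactions ran 120 min at room temperature with 10 μM ATP, added about 20 min after compound. Buffer was Hepes pH 7.5 containing Mg, DTT and 1% DMSO.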

A further assay has as its target EGFR Δ746-750 mutant (Homo sapiens (Human), UniProt P00533, DEL746-750). In words: HotSpot radiometric kinase assay, EGFR Δ746-750 mutant. Conditions: 10 μM ATP. A digest of the protocol: as §1
The target of assay [1] is EGFR Δ746-750/C797S mutant (Homo sapiens (Human), UniProt P00533, C797S/DEL746-750). The assay is described as follows: HotSpot radiometric kinase assay, EGFR Δ746-750/C797S mutant. Conditions: 10 μM ATP. On the procedure: (§2) Biochemical Assays for Inhibition of Wild-Type and Mutant EGFRs
(§3) Briefly, specific kinase/substrate pairs along with required cofactors were prepared in reaction buffer; 20 mM Hepes pH 7.5, 10 mM […], 1 mM EGTA, 0.02% Brij35, 0.02 mg/ml BSA, 0.1 mM Na3VO4, 2 mM DTT, 1% DMSO. Compounds were delivered into the reaction, followed […] later by addition of a mixture of ATP (Sigma, St. Louis MO) and ^33P ATP (Perkin Elmer, Waltham MA) to a final concentration of 10 μM. Reactions were carried out at room temperature for 120 min, followed by spotting of the reactions onto P81 ion exchange filter paper (Whatman Inc., Piscataway, NJ). Unbound phosphate was removed by extensive washing of filters in 0.75% phosphoric acid. […] IC50 values and curve fits were obtained using Prism (GraphPad Software).

The target in a further assay is EGFR L858R mutant (Homo sapiens (Human), UniProt P00533, L858R). The assay is described as follows: HotSpot radiometric kinase assay, EGFR L858R mutant. Conditions: 10 μM ATP. A digest of the protocol: as §1
For another assay, the target named is EGFR L858R/T790M mutant (Homo sapiens (Human), UniProt P00533, L858R/T790M). The assay is described as follows: HotSpot radiometric kinase assay, EGFR L858R/T790M mutant. The note with it: 10 μM ATP. How it is done:
as §2, §3

In assay [2] the target is EGFR L858R/T790M/C797S mutant (Homo sapiens (Human), UniProt P00533, C797S/L858R/T790M). In words: HotSpot radiometric kinase assay, EGFR L858R/T790M/C797S mutant. Conditions: 10 μM ATP. The method in brief:
as §1

Sequence of EGFR Δ746-750/C797S mutant (P00533 other isoform, or with tags, fused parts or gaps C797S/del 1-668/del 746-750 limits assumed): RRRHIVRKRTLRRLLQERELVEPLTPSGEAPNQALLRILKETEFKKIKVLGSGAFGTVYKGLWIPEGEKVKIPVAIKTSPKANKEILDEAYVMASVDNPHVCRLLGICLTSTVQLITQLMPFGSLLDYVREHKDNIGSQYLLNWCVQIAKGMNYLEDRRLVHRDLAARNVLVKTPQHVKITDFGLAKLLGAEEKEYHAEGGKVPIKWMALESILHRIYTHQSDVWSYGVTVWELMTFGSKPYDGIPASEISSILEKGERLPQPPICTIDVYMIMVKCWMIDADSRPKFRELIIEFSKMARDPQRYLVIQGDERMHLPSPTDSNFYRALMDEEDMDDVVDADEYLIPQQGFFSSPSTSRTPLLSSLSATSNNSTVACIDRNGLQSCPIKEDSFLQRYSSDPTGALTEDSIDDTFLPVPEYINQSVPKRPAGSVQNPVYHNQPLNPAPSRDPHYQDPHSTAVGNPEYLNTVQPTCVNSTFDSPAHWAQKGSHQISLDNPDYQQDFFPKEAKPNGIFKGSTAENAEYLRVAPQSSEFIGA
Sequence of EGFR WT (P00533 25-1210): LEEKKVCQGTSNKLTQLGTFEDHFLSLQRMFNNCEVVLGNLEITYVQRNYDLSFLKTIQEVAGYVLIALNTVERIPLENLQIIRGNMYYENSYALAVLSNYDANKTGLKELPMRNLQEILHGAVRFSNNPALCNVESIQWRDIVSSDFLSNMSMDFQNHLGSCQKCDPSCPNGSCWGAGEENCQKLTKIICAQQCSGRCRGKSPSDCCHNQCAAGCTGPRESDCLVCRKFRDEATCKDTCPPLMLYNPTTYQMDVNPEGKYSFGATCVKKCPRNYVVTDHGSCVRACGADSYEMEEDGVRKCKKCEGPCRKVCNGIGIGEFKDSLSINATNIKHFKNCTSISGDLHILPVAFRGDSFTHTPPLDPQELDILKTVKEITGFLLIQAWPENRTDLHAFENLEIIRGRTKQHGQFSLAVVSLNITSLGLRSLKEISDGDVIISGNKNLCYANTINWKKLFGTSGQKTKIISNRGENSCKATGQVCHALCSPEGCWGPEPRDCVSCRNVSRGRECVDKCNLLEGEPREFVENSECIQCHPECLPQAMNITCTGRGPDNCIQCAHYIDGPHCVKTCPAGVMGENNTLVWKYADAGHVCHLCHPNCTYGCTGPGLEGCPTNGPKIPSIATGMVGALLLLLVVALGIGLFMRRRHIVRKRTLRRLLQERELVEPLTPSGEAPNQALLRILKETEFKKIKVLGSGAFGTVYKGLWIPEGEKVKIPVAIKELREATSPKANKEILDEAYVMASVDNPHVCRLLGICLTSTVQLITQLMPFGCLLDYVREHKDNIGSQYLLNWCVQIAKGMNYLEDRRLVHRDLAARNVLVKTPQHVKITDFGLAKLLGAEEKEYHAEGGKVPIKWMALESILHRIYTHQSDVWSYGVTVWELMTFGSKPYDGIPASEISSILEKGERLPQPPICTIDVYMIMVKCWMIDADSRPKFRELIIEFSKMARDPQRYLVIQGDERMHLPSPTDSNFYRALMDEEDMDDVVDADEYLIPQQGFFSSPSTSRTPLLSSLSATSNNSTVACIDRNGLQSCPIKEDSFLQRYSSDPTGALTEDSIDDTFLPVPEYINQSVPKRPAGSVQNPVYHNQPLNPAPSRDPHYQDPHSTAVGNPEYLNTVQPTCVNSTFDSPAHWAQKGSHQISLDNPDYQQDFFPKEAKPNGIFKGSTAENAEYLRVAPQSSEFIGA
Sequence of EGFR L858R mutant (P00533 25-1210 L858R): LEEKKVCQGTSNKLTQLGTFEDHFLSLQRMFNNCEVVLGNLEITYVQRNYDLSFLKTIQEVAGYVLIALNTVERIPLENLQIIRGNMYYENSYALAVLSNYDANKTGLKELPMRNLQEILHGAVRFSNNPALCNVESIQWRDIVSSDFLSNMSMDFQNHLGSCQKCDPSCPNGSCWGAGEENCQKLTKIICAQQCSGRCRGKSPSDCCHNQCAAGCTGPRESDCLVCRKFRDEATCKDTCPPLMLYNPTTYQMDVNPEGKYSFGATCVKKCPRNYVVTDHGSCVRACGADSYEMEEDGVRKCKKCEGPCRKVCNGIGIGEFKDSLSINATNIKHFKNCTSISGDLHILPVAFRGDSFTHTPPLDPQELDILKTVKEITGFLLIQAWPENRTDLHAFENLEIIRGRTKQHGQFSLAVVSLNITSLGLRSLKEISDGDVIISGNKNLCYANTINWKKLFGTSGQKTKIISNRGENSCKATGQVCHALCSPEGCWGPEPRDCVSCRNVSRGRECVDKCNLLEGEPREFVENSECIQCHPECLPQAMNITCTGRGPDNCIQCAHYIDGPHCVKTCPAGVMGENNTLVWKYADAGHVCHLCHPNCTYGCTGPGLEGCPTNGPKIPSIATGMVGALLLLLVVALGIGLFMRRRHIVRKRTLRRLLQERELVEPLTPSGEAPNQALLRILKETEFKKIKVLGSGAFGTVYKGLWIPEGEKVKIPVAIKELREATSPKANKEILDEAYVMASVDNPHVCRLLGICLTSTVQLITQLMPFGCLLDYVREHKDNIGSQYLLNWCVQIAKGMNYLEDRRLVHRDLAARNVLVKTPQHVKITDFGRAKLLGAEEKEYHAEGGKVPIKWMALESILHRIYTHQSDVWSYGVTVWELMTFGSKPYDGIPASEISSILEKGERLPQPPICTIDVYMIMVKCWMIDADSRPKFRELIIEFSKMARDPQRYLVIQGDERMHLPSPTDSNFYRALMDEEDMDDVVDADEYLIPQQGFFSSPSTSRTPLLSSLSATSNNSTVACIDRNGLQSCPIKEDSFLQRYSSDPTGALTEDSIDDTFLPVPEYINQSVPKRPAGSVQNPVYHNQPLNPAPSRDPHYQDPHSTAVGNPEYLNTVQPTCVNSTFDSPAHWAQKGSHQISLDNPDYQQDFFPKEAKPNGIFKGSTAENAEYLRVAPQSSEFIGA
Sequence of EGFR (D770_N771insNPG) (P00533 other isoform, or with tags, fused parts or gaps del 1-668/ins NPG behind 770 limits assumed): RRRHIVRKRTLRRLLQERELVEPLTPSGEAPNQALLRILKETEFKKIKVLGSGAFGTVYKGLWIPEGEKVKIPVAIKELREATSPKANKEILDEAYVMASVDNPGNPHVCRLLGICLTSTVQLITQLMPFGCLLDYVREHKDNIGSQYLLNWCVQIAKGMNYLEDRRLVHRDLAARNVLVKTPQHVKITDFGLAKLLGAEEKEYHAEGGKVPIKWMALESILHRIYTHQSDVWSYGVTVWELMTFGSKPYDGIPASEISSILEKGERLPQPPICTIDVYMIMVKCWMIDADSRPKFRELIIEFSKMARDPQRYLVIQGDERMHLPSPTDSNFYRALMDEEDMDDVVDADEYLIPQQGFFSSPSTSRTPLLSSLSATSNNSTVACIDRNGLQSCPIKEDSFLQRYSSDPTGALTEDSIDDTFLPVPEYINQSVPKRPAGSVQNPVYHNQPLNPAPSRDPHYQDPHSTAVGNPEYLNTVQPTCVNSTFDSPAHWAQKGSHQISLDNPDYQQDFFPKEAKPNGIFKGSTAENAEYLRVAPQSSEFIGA
Sequence of EGFR L858R/T790M/C797S mutant (P00533 25-1210 T790M/C797S/L858R): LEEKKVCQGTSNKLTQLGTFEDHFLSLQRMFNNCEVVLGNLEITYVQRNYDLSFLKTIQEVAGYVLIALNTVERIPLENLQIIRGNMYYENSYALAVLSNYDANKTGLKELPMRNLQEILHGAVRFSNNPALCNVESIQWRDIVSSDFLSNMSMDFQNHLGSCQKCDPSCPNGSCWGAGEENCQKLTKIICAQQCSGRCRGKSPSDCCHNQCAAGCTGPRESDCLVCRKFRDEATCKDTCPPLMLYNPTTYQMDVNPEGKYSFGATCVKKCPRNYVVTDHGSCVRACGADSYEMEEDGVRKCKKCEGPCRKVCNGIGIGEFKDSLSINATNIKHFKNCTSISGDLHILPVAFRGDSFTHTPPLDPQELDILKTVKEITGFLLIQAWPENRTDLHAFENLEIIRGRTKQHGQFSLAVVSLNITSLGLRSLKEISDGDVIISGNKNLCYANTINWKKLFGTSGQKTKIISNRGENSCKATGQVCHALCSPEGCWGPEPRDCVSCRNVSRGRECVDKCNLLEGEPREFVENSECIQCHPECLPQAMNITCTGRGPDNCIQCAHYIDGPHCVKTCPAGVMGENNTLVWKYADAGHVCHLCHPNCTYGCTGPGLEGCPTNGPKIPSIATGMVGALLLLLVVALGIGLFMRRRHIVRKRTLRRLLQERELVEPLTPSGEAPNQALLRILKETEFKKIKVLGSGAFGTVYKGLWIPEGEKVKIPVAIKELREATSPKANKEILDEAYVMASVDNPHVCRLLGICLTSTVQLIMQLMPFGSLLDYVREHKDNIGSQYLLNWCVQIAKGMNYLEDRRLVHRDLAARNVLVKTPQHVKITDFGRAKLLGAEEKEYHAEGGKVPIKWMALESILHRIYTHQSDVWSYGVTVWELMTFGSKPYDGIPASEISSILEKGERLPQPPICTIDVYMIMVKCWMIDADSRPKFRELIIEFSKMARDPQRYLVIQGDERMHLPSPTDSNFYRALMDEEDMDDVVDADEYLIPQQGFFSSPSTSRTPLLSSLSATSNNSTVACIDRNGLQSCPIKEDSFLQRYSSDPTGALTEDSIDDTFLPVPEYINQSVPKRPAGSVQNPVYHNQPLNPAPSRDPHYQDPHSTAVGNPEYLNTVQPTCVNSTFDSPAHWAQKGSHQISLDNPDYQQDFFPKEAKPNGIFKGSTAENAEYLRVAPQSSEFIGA

A word on the IC50: it is the point on the concentration scale where inhibition reaches its midpoint. For `Cc1c2c(nn1CCO)OCCOC(C)c1c(cnn1C)-c1ccc3[nH]nc(c3c1)/C=C/2` (stereo not drawn) [Example 79, 2-[(17E)-8,9,16-trimethyl-8,9,11,12-tetrahydro-3,5-etheno[1,4]dioxacyclopentadecino[11,10-c:15,14-c′:6,7-c″ ]tripyrazol-15(2H)-yl]ethan-1-ol], the IC50 worked out at 1910 nM at EGFR WT; 951 nM at EGFR (D770_N771insNPG); 596 nM against EGFR Δ746-750 mutant; 284 nM in assay [1]; 526 nM at EGFR L858R mutant; 57.1 nM against EGFR L858R/T790M mutant. Inhibition in assay [2] was half-maximal at 67.7 nM (IC50).
Regarding `CCOc1nn(CCO)c2c1/C=C/c1n[nH]c3ccc(cc13)-c1cnn(C)c1O[C@H](C)CN(C(C)=O)C2` [Example 217, 1-[(10R,17E)-16-ethoxy-14-(2-hydroxyethyl)-8,10-dimethyl-2,8,10,11,13,14-hexahydro-12H-3,5-ethenotripyrazolo[3,4-f:3′,4′-j:4″,3″-n][1,4]oxazacyclopentadecin-12-yl]ethan-1-one], the IC50 was 71.7 nM on EGFR WT; 107 nM at EGFR (D770_N771insNPG); 3.61 nM on EGFR Δ746-750 mutant; 1.94 nM in assay [1]; 37.1 nM at EGFR L858R mutant; 0.69 nM at EGFR L858R/T790M mutant. Further, the IC50 in assay [2] was found to be 1.42 nM.
For `Cc1nn(C)c2c1CN(C)C[C@H](C)Oc1c(cnn1C)-c1ccc3[nH]nc(c3c1)/C=C/2` [Example 130, (10S,17E)-8,10,12,14,16-pentamethyl-2,10,11,12,13,16-hexahydro-8H-3,5-ethenotripyrazolo[4,3-f:3′,4′-j:4″,3″- n][1,4]oxazacyclopentadecine], the IC50 came to 457 nM on EGFR WT; 851 nM on EGFR (D770_N771insNPG); 81.1 nM against EGFR Δ746-750 mutant; 38.4 nM in assay [1]; 84.3 nM against EGFR L858R mutant; 7.32 nM on EGFR L858R/T790M mutant. Besides, the IC50 in assay [2] is 5.66 nM.
On to `CCc1nn(CCN2CC[C@H](O)C2)c2c1/C=C/c1n[nH]c3ccc(cc13)-c1cnn(C)c1OCCCO2` [Example 69, (3S)-1-{2-[(17E)-16-ethyl-8-methyl-2,8,11,12-tetrahydro-10H,14H-3,5-etheno[1,5]dioxacyclopentadecino[10,11-c:15,14-c′:6,7-c″]tripyrazol-14-yl]ethyl}pyrrolidin-3-ol], for which the IC50 at EGFR WT was found to be 405 nM; at EGFR (D770_N771insNPG) it was 306 nM; on EGFR Δ746-750 mutant it was 93 nM; in assay [1], 92.4 nM; against EGFR L858R mutant, 121 nM; against EGFR L858R/T790M mutant, 14.9 nM. In addition, the IC50 in assay [2] came to 25.6 nM.
In the case of `Cc1c2c(nn1CCO)CN(C)C[C@H](C)Oc1c(cnn1C)-c1ccc3[nH]nc(c3c1)/C=C/2` [Example 60, 2-[(10S,17E)-8,10,12,16-tetramethyl-2,8,10,11,12,13-hexahydro-15H-3,5-ethenotripyrazolo[3,4-f:3′,4′-j:4″,3″- n][1,4]oxazacyclopentadecin-15-yl]ethan-1-ol], the IC50 was 581 nM against EGFR WT; 678 nM on EGFR (D770_N771insNPG); 89.7 nM against EGFR Δ746-750 mutant; 89.4 nM in assay [1]; 101 nM against EGFR L858R mutant; 6.86 nM against EGFR L858R/T790M mutant. Inhibition in assay [2] was half-maximal at 3.27 nM (IC50).
`CC(C)Oc1nn([C@@H](C)CO)c2c1/C=C/c1n[nH]c3ccc(cc13)-c1cnn(C)c1O[C@H](C)CN(C(C)C)C2` [Example 207, (2S)-2-{(10R,17E)-8,10-dimethyl-12-(propan-2-yl)-16-[(propan-2-yl)oxy]-2,8,10,11,12,13-hexahydro-14H-3,5-ethenotripyrazolo[3,4-f:3′,4′-j:4″,3″- n][1,4]oxazacyclopentadecin-14-yl}propan-1-ol]: the IC50 (against EGFR WT; at EGFR (D770_N771insNPG); at EGFR Δ746-750 mutant; in assay [1]; against EGFR L858R mutant; on EGFR L858R/T790M mutant) was above 1000 nM each time. The IC50 in assay [2] is above 1000 nM.
